The test system of one assay is MCF-7 cells. The assay is described as follows: In vitro cytotoxicity, MCF-7 cells, 72 hour exposure, surviving fraction by plating efficiency. Particulars: MCF-7 (human breast tumor) cells, read-out: IC50 value towards MCF-7 cells. It is filed as cell-based. How it is done:
(§1) Disulfide-containing and thiol-containing PEGylated taxane drugs of the invention can be evaluated for their ability to suppress proliferation of various unwanted cell lines in vitro. For example, cell lines such as the human lung carcinoma line A549, the human breast tumor line MCF-7, and the Burkitt's lymphoma line Namalwa can easily be used for the assessment of cytotoxicity of these compounds. Cells to be evaluated can be exposed to the compounds for 72 hours and the surviving fractions of cells measured in direct assays by known methods. IC50 values can then be calculated from the results of the assays.
The sulfide, disulfide, and sulfhydryl containing PEGylated taxane drugs of the invention can be evaluated for their ability to suppress proliferation of various human tumor cell lines in vitro. Two adherent cell lines A549(human lung carcinoma) and MCF-7 (human breast tumor) and the non-adherent cell line, Namalwa (Burkitt's lymphoma) are used for the assessment of cytotoxicity of these compounds. Cells are exposed to the compounds for 72 hours and the surviving fractions of cells are measured in direct assays.

The subject of another assay is A-431 cells. The assay is described as follows: In vitro cytotoxicity, A-431 cells. It is filed as cell-based. The conditions noted are these: read-out: IC50 towards A-431 cells. How it is done:
as §1
Cytotoxicity of the PEGylated taxanes and their antibody conjugates to non-adherent cell lines such as Namalwa and HL-60 can be measured by back-extrapolation of cell proliferation curves as described in Goldmacher et al, 135 J. Immunol. 3648-3651 (1985). Cytotoxicity of these compounds to adherent cell lines such as SKBR3 and A431 can be determined by clonogenic assays as described in Goldmacher et al, 102 J. Cell Biol. 1312-1319 (1986).

Structures are written as SMILES. pIC50: −log10 of the molar value.

The pIC50 is −log10 of the IC50, conventionally taken in molar units. On to `COc1ccc(OC)c(C(=O)OC2C3C4(OC(C)=O)COC4CC(OC(=O)CCOCCOCCOCCOCCSSC)C3(C)C(=O)C(O)C3=C(C)C(OC(=O)C(O)C(C=C(C)C)NC(=O)OC(C)(C)C)CC2(O)C3(C)C)c1` (stereo not drawn) [taxoid 20, 3′-Dephenyl-3′-(isobutenyl)-2-debenzoyl-2-(2,5-dimethoxybenzoyl)-7-(15-methyldithio-4,7,10,13-tetraoxapentadecanoyl)-docetaxel], for which the pIC50 in the assay with MCF-7 cells was 9.49.

In the case of `COc1ccc(OC)c(C(=O)OC2C3C4(OC(C)=O)COC4CC(O)C3(C)C(=O)C(OC(=O)CCOCCOCCOCCOCCSSC)C3=C(C)C(OC(=O)C(O)C(C=C(C)C)NC(=O)OC(C)(C)C)CC2(O)C3(C)C)c1` (stereo not drawn) [taxoid 17, 3′-Dephenyl-3′-(isobutenyl)-2-debenzoyl-2-(2,5-dimethoxybenzoyl)-10-(15-methyldithio-4,7,10,13-tetraoxapentadecanoyl)-docetaxel], the pIC50 in the assay on MCF-7 cells was 10.20; in the assay on A-431 cells it was 9.48.
